Experimental data published in patent publication US8883782B2, “Spiro-tetracyclic ring compounds as beta-secretase modulators and methods of use” (Amgen Inc., priority 2010, dated 2014).
Read-outs that look alike come from different tables or passages of the source.

How the values were obtained:
[1] = target: Beta Secretase enzyme (BACE) (Homo sapiens, UniProt P56817); experiment: In vitro enzymatic BACE FRET (fluorescence resonance energy transfer) assay; type: biochemical
Summary of the method: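 Run in 0.05 M acetate pH 4.2 with 10% DMSO final and 100 uM genapol; started by adding 50 nM FRET peptide substrate (fluorophore and quencher flanking the cleavage site), incubated one hour, then stopped with Tris to neutral pH before reading fluorescence.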

[2] = tested on: Aβ40 in conditioned medium of cells stably expressing Amyloid Precursor Protein (APP); experiment: In vitro BACE cell-based assay (Aβ40 in conditioned medium, sandwich ELISA); conditions: Homo sapiens
Summary of the method: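 Conditioned medium from stably APP-expressing cells treated with compound dose series is assayed for Aβ40 by sandwich ELISA with time-resolved fluorescence detection. IC50 is calculated from percent inhibition of Aβ40 against compound concentration.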

[3] = average IC50, enzyme assay, read-out: BACE 1 FRET assay
[4] = HEK293, average IC50, read-out: HEK cell assay
[5] = HEK293, average IC50, HEK cells, read-out: HEK cell assay

Sequence of Beta Secretase enzyme (BACE) (P56817 46-501, species assumed): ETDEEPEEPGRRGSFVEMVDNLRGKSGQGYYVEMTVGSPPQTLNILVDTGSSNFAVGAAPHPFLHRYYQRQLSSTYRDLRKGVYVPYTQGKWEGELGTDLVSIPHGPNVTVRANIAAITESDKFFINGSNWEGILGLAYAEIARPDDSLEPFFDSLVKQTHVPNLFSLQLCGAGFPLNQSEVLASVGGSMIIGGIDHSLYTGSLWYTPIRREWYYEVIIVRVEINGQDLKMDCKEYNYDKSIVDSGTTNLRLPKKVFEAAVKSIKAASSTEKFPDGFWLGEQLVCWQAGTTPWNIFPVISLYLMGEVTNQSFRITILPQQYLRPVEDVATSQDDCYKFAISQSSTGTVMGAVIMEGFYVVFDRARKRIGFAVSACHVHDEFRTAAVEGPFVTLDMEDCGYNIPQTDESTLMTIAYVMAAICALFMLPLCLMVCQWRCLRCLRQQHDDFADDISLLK

SMILES | IC50 [1, 3] [µM] | IC50 [2, 4] [µM] | IC50 [2, 5] [µM] | IC50 ([1]; BACE 1 FRET assay (uM)) [µM] | IC50 ([2]; HEK293, read-out: HEK cell assay (uM), average IC50, HEK cells) [µM]
NC1=N[C@@]2(CO1)c1cc(-c3cnccn3)ccc1Oc1c(F)cc(N3C[C@@H]4C[C@H]3CO4)cc12 [Example 268, (4S)-4′-fluoro-2′-((1S,4S)-2-oxa-5-azabicyclo[2.2.1]hept-5-yl)-7′-(2-pyrazinyl)spiro[1,3-oxazole-4,9′-xanthen]-2-amine] | 0.0105 | 0.0261 | – | – | –
Cc1ccc(-c2cc3c(cn2)Oc2ccc(-c4cncc(Cl)c4)cc2[C@@]32COC(N)=N2)cn1 [Example 227, (5S)-7-(5-chloro-3-pyridinyl)-3-(6-methyl-3-pyridinyl)spiro[chromeno[2,3-c]pyridine-5,4′-[1,3]oxazol]-2′-amine] | 0.0014 | 0.0071 | – | – | –
CN(C)c1cc2c(cn1)Oc1ccc(-c3cccnc3F)cc1C21COC(N)=N1 (racemic) [Example 706] | 0.0224 | – | 0.205 | – | –
CC(C)(C)C#Cc1cc2c(cn1)Oc1cc(F)c(-c3cncnc3)cc1[C@@]21COC(N)=N1 [Example 305, (5S)-3-(3,3-dimethyl-1-butyn-1-yl)-8-fluoro-7-(5-pyrimidinyl)spiro[chromeno[2,3-c]pyridine-5,4′-[1,3]oxazol]-2′-amine] | 0.0099 | 0.0958 | – | – | –
CC1(C#Cc2cc3c(c(F)n2)Oc2ccc(-c4cccnc4F)cc2[C@]32COC(N)=N2)COC1 [Example 737, (5R)-1-fluoro-7-(2-fluoro-3-pyridinyl)-3-((3-methyl-3-oxetanyl)ethynyl)spiro[chromeno[2,3-c]pyridine-5,4′-[1,3]oxazol]-2′-amine] | 0.116 | 4.33 | – | – | –
CN1CCN(c2cccc(-c3ccc4c(c3)[C@@]3(COC(N)=N3)c3cc(Cl)ncc3O4)c2)CC1(C)C [Example 531, (5S)-3-chloro-7-(3-(3,3,4-trimethyl-1-piperazinyl)phenyl)spiro[chromeno[2,3-c]pyridine-5,4′-[1,3]oxazol]-2′-amine] | 13.7 | – | 0.334 | – | –
NC1=N[C@@]2(CS1)c1cc(-c3cccnc3F)ccc1Oc1cnc(N3CCC(F)(F)C3)cc12 (single isomer, unassigned) [Example 704] | 0.0003 | – | 0.012 | – | –
N#Cc1cccc(-c2ccc3c(c2)[C@@]2(COC(N)=N2)c2cc(N4CC[C@H](F)C4)ncc2O3)c1 [Example 426, 3-((5S)-2′-amino-3-((3S)-3-fluoro-1-pyrrolidinyl)spiro[chromeno[2,3-c]pyridine-5,4′-[1,3]oxazol]-7-yl)benzonitrile] | 0.0035 | – | 0.0168 | – | –
NC1=N[C@@]2(CO1)c1cc(-c3cccnc3F)ccc1Oc1c(F)cc(-c3ccncn3)cc12 [Example 212, (4S)-4′-fluoro-7′-(2-fluoro-3-pyridinyl)-2′-(4-pyrimidinyl)spiro[1,3-oxazole-4,9′-xanthen]-2-amine] | 0.0014 | 0.0113 | – | – | –
COc1cc(-c2cc3c(cn2)Oc2ccc(-c4cccnc4F)cc2[C@@]32COC(N)=N2)ccc1F [Example 537, (5S)-3-(4-fluoro-3-methoxyphenyl)-7-(2-fluoro-3-pyridinyl)spiro[chromeno[2,3-c]pyridine-5,4′-[1,3]oxazol]-2′-amine] | 0.0076 | – | 0.303 | – | –
Cc1ccn(-c2cc(F)c3c(c2)[C@]2(COC(N)=N2)c2cc(-c4cccnc4F)ccc2O3)n1 [Example 620, (4S)-4′-fluoro-7′-(2-fluoro-3-pyridinyl)-2′-(3-methyl-1H-pyrazol-1-yl)spiro[1,3-oxazole-4,9′-xanthen]-2-amine] | 0.0028 | – | 0.068 | – | –
C[C@@H]1CN(c2cc(F)c3c(c2)[C@]2(COC(N)=N2)c2cc(-c4cnccn4)ccc2O3)C[C@H](C)O1 [Example 94, (S)-2′-((2R,6S)-2,6-dimethylmorpholino)-4′-fluoro-7′-(pyrazin-2-yl)-5H-spiro[oxazole-4,9′-xanthen]-2-amine] | 0.0063 | 0.0197 | – | – | –
NC1=N[C@@]2(CS1)c1cc(-c3cccnc3)c(F)cc1Oc1c(F)cc(C3=CCOCC3)cc12 [Example 881, (4S)-7′-(3,6-dihydro-2H-pyran-4-yl)-3′,5′-difluoro-2′-(3-pyridinyl)spiro[1,3-thiazole-4,9′-xanthen]-2-amine] | 0.0005 | – | 0.023 | – | –
CC1(COc2cc3c(cc2F)Oc2ccc(-c4cccc(Cl)c4)cc2[C@@]32COC(N)=N2)COC1 [Example 310, (4S)-7′-(3-chlorophenyl)-3′-fluoro-2′-((3-methyl-3-oxetanyl)methoxy)spiro[1,3-oxazole-4,9′-xanthen]-2-amine] | 0.0032 | 0.113 | – | – | –
Cc1cc(-c2ccc3c(c2)[C@@]2(COC(N)=N2)c2cc(C#CC4(C)COC4)cnc2O3)cnc1F [Example 468, (5S)-7-(6-fluoro-5-methyl-3-pyridinyl)-3-((3-methyl-3-oxetanyl)ethynyl)spiro[chromeno[2,3-b]pyridine-5,4′-[1,3]oxazol]-2′-amine] | 0.0074 | – | 0.0287 | – | –
CC1(C#Cc2cc3c(cn2)Oc2ccc(-c4cccc(Cl)c4)cc2[C@@]32COC(N)=N2)COC1 [Example 157, (5S)-7-(3-chlorophenyl)-3-((3-methyl-3-oxetanyl)ethynyl)spiro[chromeno[2,3-c]pyridine-5,4′-[1,3]oxazol]-2′-amine] | 0.0008 | 0.0302 | – | – | –
N#Cc1cccc(-c2ccc3c(c2)C2(COC(N)=N2)c2cc(C4CCOCC4)nc(F)c2O3)c1 (stereo not shown) [Example 751, 3-(2′-amino-1-fluoro-3-(tetrahydro-2H-pyran-4-yl)spiro[chromeno[2,3-c]pyridine-5,4′-[1,3]oxazol]-7-yl)benzonitrile] | 0.0032 | 0.042 | – | – | –
CC(C)(C#N)COc1cc2c(c(F)c1F)Oc1ccc(-c3cccnc3)cc1[C@]21COC(N)=N1 [Example 1008, 3-(((4R)-2-amino-3′,4′-difluoro-7′-(3-pyridinyl)spiro[1,3-oxazole-4,9′-xanthen]-2′-yl)oxy)-2,2-dimethylpropanenitrile] | 0.0179 | 0.775 | – | – | –
COc1nccc(-c2cc(F)c3c(c2)[C@]2(COC(N)=N2)c2cc(-c4cccnc4F)ccc2O3)n1 [Example 607, (4S)-4′-fluoro-7′-(2-fluoro-3-pyridinyl)-2′-(2-methoxy-4-pyrimidinyl)spiro[1,3-oxazole-4,9′-xanthen]-2-amine] | 0.0051 | – | 0.07 | – | –
COc1ccc(Cl)c(-c2ccc3c(c2)[C@@]2(COC(N)=N2)c2cc(C4=CCOCC4)cnc2O3)c1 [Example 499, (5S)-7-(2-chloro-5-methoxyphenyl)-3-(3,6-dihydro-2H-pyran-4-yl)spiro[chromeno[2,3-b]pyridine-5,4′-[1,3]oxazol]-2′-amine] | 0.0022 | – | 0.0227 | – | –
NC1=N[C@@]2(CO1)c1cc(O)ccc1Oc1c(F)cc(-n3cccn3)cc12 [Example 665, (4S)-2-amino-5′-fluoro-7′-(1H-pyrazol-1-yl)spiro[1,3-oxazole-4,9′-xanthen]-2′-ol] | 1.1 | – | 4.58 | – | –
CC(C)(C)COc1cc2c(cn1)Oc1ccc(-c3cccnc3F)cc1[C@]21COC(N)=N1 [Example 610, (5R)-3-(2,2-dimethylpropoxy)-7-(2-fluoro-3-pyridinyl)spiro[chromeno[2,3-c]pyridine-5,4′-[1,3]oxazol]-2′-amine] | 0.116 | – | 1.13 | – | –
COc1ccc(-c2cc3c(cn2)Oc2ccc(-c4cccnc4F)cc2[C@@]32COC(N)=N2)cc1F [Example 533, (5S)-3-(3-fluoro-4-methoxyphenyl)-7-(2-fluoro-3-pyridinyl)spiro[chromeno[2,3-c]pyridine-5,4′-[1,3]oxazol]-2′-amine] | – | – | – | 0.0014 | 0.0235
Cc1cc(-c2cc(F)c3c(c2)[C@]2(COC(N)=N2)c2cc(OCC4(C)COC4)ccc2O3)cnc1F [Example 445, (4S)-4′-fluoro-2′-(6-fluoro-5-methyl-3-pyridinyl)-7′-((3-methyl-3-oxetanyl)methoxy)spiro[1,3-oxazole-4,9′-xanthen]-2-amine] | 0.0416 | – | 0.188 | – | –
CC#Cc1cncc(-c2ccc3c(c2)[C@@]2(COC(N)=N2)c2cc(OC)cc(F)c2O3)n1 [Example 723, (4S)-4′-fluoro-2′-methoxy-7′-(6-(1-propyn-1-yl)-2-pyrazinyl)spiro[1,3-oxazole-4,9′-xanthen]-2-amine] | 0.0926 | 0.958 | – | – | –
NC1=N[C@]2(CO1)c1cc(-c3cnccc3F)c(F)cc1Oc1ncc(C3=CCOCC3)cc12 [Example 645, (5R)-3-(3,6-dihydro-2H-pyran-4-yl)-8-fluoro-7-(4-fluoro-3-pyridinyl)spiro[chromeno[2,3-b]pyridine-5,4′-[1,3]oxazol]-2′-amine] | 0.0531 | – | 0.291 | – | –
NC1=N[C@@]2(CO1)c1cc(-c3cccnc3)ccc1Oc1c2cc(-c2ccnc(F)c2)c(F)c1F [Example 1013, (4S)-3′,4′-difluoro-2′-(2-fluoro-4-pyridinyl)-7′-(3-pyridinyl)spiro[1,3-oxazole-4,9′-xanthen]-2-amine] | 0.0024 | 0.1 | – | – | –
NC1=N[C@@]2(CO1)c1cc(OCc3cccc(C(F)(F)F)c3)ccc1Oc1ncc(-c3cccnc3)cc12 [Example 985, (5S)-3-(3-pyridinyl)-7-((3-(trifluoromethyl)benzyl)oxy)spiro[chromeno[2,3-b]pyridine-5,4′-[1,3]oxazol]-2′-amine] | 0.0683 | 0.288 | – | – | –
CC1(C)CC(c2cnc3c(c2)[C@@]2(COC(N)=N2)c2c(ccc(-c4cccnc4F)c2F)O3)=CCO1 [Example 351, (5S)-3-(2,2-dimethyl-3,6-dihydro-2H-pyran-4-yl)-6-fluoro-7-(2-fluoro-3-pyridinyl)spiro[chromeno[2,3-b]pyridine-5,4′-[1,3]oxazol]-2′-amine] | 0.389 | 0.854 | – | – | –
